The subject of data set [1] is Aβ42-treated hippocampal neurons. Kind of data set: In vitro amyloid synaptotoxicity model: mushroom spine percentage in primary hippocampal neuronal cultures. As to conditions: 24 h, mean ± SEM. Format: cell-based, mouse. The protocol: The average percentages of mushroom spines (MS%) in each experimental condition are presented as mean ± SEM (n = 20–30 neurons for each group from three batches of cultures). We observed that 24-h incubation in the presence of 1 µM and 100 nM of C20 rescues mushroom spine loss in Aβ42-treated hippocampal neurons. C20 lost its activity at a 10 nM concentration (Figure 2B, mushroom spine percentage (MS%) in the Control, 29.07 ± 1.15%; Control + C20 [1 µM], 31.32 ± 1.46%; Control + C20 [100 nM], 30.11 ± 0.86%; Control + C20 [10 nM]; […]; Aβ42, 19.82 ± 1.13%; Aβ42 + C20 [1 µM], 29.00 ± 1.94%; Aβ42 + C20 [100 nM], 27.28 ± 1.81%; Aβ42 + C20 [10 nM], 18.64 ± 1.63%; two-way ANOVA following Tukey’s multiple comparisons test, P values are indicated in the Figure).
Primary hippocampal neuronal cultures were prepared as previously described. Briefly, hippocampuses from postnatal day 0–2 FVB/NJ mice were removed and cut into small pieces in ice-cold buffer (1% 10x CMF-HBSS (Gibco, Grand Island, NY, USA; #14185), 1% Pen Strep (Gibco, #15140), 16 MM HEPES (Sigma, St Louis, MO, USA; #H3375), 10 MM NaHCO3 (Sigma, #S5761); pH = 7.2). Cell tissue was dissociated by trituration with 5 mg/mL DNase I solution (Sigma, #DN-25) after papain (Worthington, Columbus, OH, USA; #LK003176) digestion for 30 min at 37 °C. Hippocampal neurons were plated onto poly-D-lysine (Sigma, #P0899) coated 12 mm glass coverslips (Thermo Scientific, Braunschweig, Germany; #CB00120RA1) in 24-well dishes. in Neurobasal/B-27 with the addition of insulin-transferrin-sodium selenite (Sigma-Aldrich). Cells were grown in 1 mL of Neurobasal medium (Gibco, #10888) supplemented with 1% FBS (Gibco, #10500), 2% 50xB27 (Gibco, #17504), 0.05 MM L- Glutamine (Gibco, #250030). The cultures were maintained at 37 °C in a 5% CO2 incubator. Half of the medium was replaced with a new culture medium at DIV 7 and DIV 14. At DIV 14, neurons were fixed for 10 min with 4% paraformaldehyde sucrose in PBS at room temperature.
Neurons were transfected using the calcium phosphate method at DIV 7 as previously described with alterations that were described earlier. The transfection kit was obtained from Clontech (TAKARA Biotechnology, Mountain View, CA, USA; #631312).
Aβ42 peptides were purchased from AnaSpec (Anaspec, Freemont, CA, USA; #AS-20276). Stock solution [1 mg/mL] was prepared as described earlier and stored at −20 °C. Working Aβ42 solution was made immediately prior to treatment of the cells by diluting the stock concentration to 6.6 µM final Aβ peptide concentrations in Neurobasal. The working solution was incubated at +4 °C for 24 h to obtain the oligomeric conditions as described. […]

A short description of data set [2]: In vitro stability in pooled mouse blood plasma. As to conditions: 1 µM, 37 °C. Format: in vitro ADME. How it is done: The stability of C20 was assessed during incubation with pooled mouse plasma samples for 4 h at 37 °C. To confirm the activity of blood plasma enzymes in the control substance, propantheline (Figure 4A) was used.
The compound C20, at a final concentration of 1 μM, was incubated in mouse plasma at 37 °C with moderate shaking at 300 rpm in a shaker-incubator. After 0, 15, 30, 60 and 240 min, the samples were mixed, aliquots were obtained, and the samples were analyzed by HPLC-MS/MS. Propantheline was used as a control compound. Incubation of compounds with plasma samples was carried out in duplicate. Overall, 100% was obtained as the amount of a substance determined using a mass spectrometer in blood plasma in a 0 min incubation time period.
A total of 3 µL of 100-fold C20 or propantheline substance (0.1 mM) was added to 297 µL of blood plasma preheated to 37 °C to a final concentration of 1 µM.
Aliquots of 30 μL for the time point T = 0 were transferred into microtubes with a capacity of 1.1 mL pre-filled with 180 μL of chilled MeCN with an internal standard of Tolbutamide (IS) at a concentration of 50 ng/mL. Mixed and kept at +4 °C for 15 min. […]
The values of the areas of chromatographic peaks of substances in the studied samples normalized to the area of IS were used for calculations. The 100% of the tested substance from the initial amount was determined at T = 0 min of incubation. […]

The test system of another data set is TRPC3. The conditions noted are these: cited from earlier work.

As to `COc1cc2c(cc1OC)C(c1cc3ccccc3oc1=O)=NC(C)(C)C2` [C20, 3-(3-,4-Dihydro-6,7-dimethoxy-3,3-dimethyl-1-isoquinolinyl)-2H-1-benzopyran-2-one], the “mushroom spine percentage (MS%)” value in data set [1] (Aβ42-treated cultures + 10 nM, Aβ42 alone 19.82 ± 1.13%) worked out at 18.64 ± 1.63%; in data set [1] (Aβ42-treated cultures + 100 nM, Aβ42 alone 19.82 ± 1.13%), 27.28 ± 1.81%; in data set [1] (Aβ42-treated cultures + 1 µM, Aβ42 alone 19.82 ± 1.13%), 29.00 ± 1.94%; in data set [1] (Control cultures + 100 nM, Control 29.07 ± 1.15%) it was 30.11 ± 0.86%. Further, the “initial amount remaining in mouse blood plasma” value in data set [2] (after 4 h incubation) was “about 62%”. For the same compound, in data set [2] (during the first hour of incubation), the “concentration remaining in mouse blood plasma” value was “above 85%”. In addition, in the data set on TRPC3, the “activation of TRPC3” value is recorded as “does not activate TRPC3”.

These data come from paper PMC9653995, “New Positive TRPC6 Modulator Penetrates Blood–Brain Barrier, Eliminates Synaptic Deficiency and Restores Memory Deficit in 5xFAD Mice” (International Journal of Molecular Sciences, 2022).
